Measured values reported in patent US11000033B2, “Ketone or oxime compound, and herbicide” (NISSAN CHEMICAL CORPORATION, priority 2014, dated 2021).

Columns and labels:
Format in all cases: in vivo
Apera spica-venti = experiment: Test Example 4: herbicidal effect by soil treatment (symbol L); settings: application herbicide amount 320 g/ha
Method in brief: (§1)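 Seeds were sown in sterilized diluvial soil, covered with about 1.5 cm of soil, and the soil surface was sprayed with a water-diluted emulsion of the compound at a predetermined rate. Plants grew in a greenhouse at 25° C. to 30° C.; effects were scored visually 3 weeks after application.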

beet = experiment: Test Example 4: effect on crop by soil treatment (symbol f); settings: application herbicide amount 320 g/ha
Method in brief: (§2)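 Grown at 25° C. to 30° C. in a greenhouse, the crops came from seed sown spot-wise in sterilized diluvial soil under roughly 1.5 cm of covering soil.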

Amaranthus retroflexus [1] = experiment: Test Example 4: herbicidal effect by soil treatment (symbol N); settings: application herbicide amount 320 g/ha
Method in brief: as §1

Scirpus juncoides = experiment: Test Example 1: herbicidal activity, application before weed generation in submerged conditions (symbol B); settings: application herbicide amount 320 g/ha
Method in brief: (§3)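 0–5 visual score, 3 wk post-application. Submerged pots, alluvial soil, water 4 cm; seeds sown mixed, rice at 2.5 leaves transplanted. Emulsion diluted to predetermined dose, applied to water surface at sowing. 25–30 °C greenhouse.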

Chenopodium album [2] = experiment: Test Example 4: herbicidal effect by soil treatment (symbol O); settings: application herbicide amount 320 g/ha
Method in brief: as §1

wheat = experiment: Test Example 4: effect on crop by soil treatment (symbol e); settings: application herbicide amount 320 g/ha
Method in brief: as §2

[3] = test system: Echinochloa crus-galli var. crus-galli; experiment: Test Example 5: herbicidal effect by foliage application, plastic box (symbol H); settings: 320 g/ha, 3 weeks after application
Method in brief: (§4)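 Seeds were sown in sterilized diluvial soil, covered with about 1.5 cm of soil and grown 14 days in a greenhouse at 25° C. to 30° C. An emulsifiable formulation diluted in water to a set rate was sprayed over foliage, and injury was scored 3 weeks later.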

soybean [4] = experiment: Test Example 4: effect on crop by soil treatment (symbol d); settings: application herbicide amount 320 g/ha
Method in brief: as §2

Abutilon theophrasti = experiment: Test Example 5: herbicidal effect by foliage application, plastic box (symbol M); settings: 320 g/ha, 3 weeks after application
Method in brief: as §4

Lolium multiflorum Lam. = experiment: Test Example 4: herbicidal effect by soil treatment (symbol K); settings: application herbicide amount 320 g/ha
Method in brief: as §1

[5] = test system: Echinochloa crus-galli var. crus-galli; experiment: Test Example 3: herbicidal effect by foliage application, Wagner pot (symbol H); settings: application herbicide amount 320 g/ha
Method in brief: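 Plants sown in submerged alluvial soil (water depth 0.1–0.5 cm) in a 25–30 °C greenhouse and grown 14 days. An emulsion of the compound diluted in water to a set herbicide amount was sprayed uniformly on foliage. Effect on each plant scored 3 weeks after application.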

Avena fatua = experiment: Test Example 4: herbicidal effect by soil treatment (symbol I); settings: application herbicide amount 320 g/ha
Method in brief: as §1

Monochoria vaginalis = experiment: Test Example 1: herbicidal activity, application before weed generation in submerged conditions (symbol C); settings: application herbicide amount 320 g/ha
Method in brief: as §3

Amaranthus retroflexus [6] = experiment: Test Example 5: herbicidal effect by foliage application, plastic box (symbol N); settings: 320 g/ha, 3 weeks after application
Method in brief: as §4

soybean [7] = experiment: Test Example 5: effect on crop by foliage application, plastic box (symbol d); settings: 320 g/ha, 3 weeks after application
Method in brief: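 Crop and weed seeds sown in spots in sterilized diluvial soil in plastic boxes and covered with about 1.5 cm soil. Plants raised in a greenhouse at 25° C. to 30° C. for foliar application.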

Setaria viridis [8] = experiment: Test Example 4: herbicidal effect by soil treatment (symbol G); settings: application herbicide amount 320 g/ha
Method in brief: as §1

Setaria viridis [9] = experiment: Test Example 5: herbicidal effect by foliage application, plastic box (symbol G); settings: 320 g/ha, 3 weeks after application
Method in brief: as §4

Chenopodium album [10] = experiment: Test Example 5: herbicidal effect by foliage application, plastic box (symbol O); settings: 320 g/ha, 3 weeks after application
Method in brief: as §4

Galium spurium = experiment: Test Example 5: herbicidal effect by foliage application, plastic box (symbol Q); settings: 320 g/ha, 3 weeks after application
Method in brief: as §4

## C=CC(=O)CC1CC(O)=C(c2c(C)cc(C)cc2C)C1=O (stereo not shown) [2-031]
Apera spica-venti
  L: Apera spica-venti, herbicidal effect grade: 2 (Herbicidal ratio of 20% or higher and lower than 40%)
beet
  f: beet, effect on crop grade: 0 (Herbicidal ratio of 5% or lower (almost no effect))
Amaranthus retroflexus [1]
  N: Amaranthus retroflexus, herbicidal effect grade: 0 (Herbicidal ratio of 5% or lower (almost no effect))
Scirpus juncoides
  Herbicidal effect grade, B: Scirpus juncoides: 4 (Herbicidal ratio of 70% or higher and lower than 90%)
Chenopodium album [2]
  O: Chenopodium album, herbicidal effect grade: 0 (Herbicidal ratio of 5% or lower (almost no effect))
wheat
  e: wheat, effect on crop grade: 3 (Herbicidal ratio of 40% or higher and lower than 70%)
[3]
  H: Echinochloa crus-galli var. crus-galli, herbicidal effect grade: 5 (Herbicidal ratio of 90% or more (almost completely withered))
Soybean [4]
  d: soybean, effect on crop grade: 0 (Herbicidal ratio of 5% or lower (almost no effect))
Abutilon theophrasti
  M: Abutilon theophrasti, herbicidal effect grade: 0 (Herbicidal ratio of 5% or lower (almost no effect))
Lolium multiflorum Lam.
  K: Lolium multiflorum Lam., herbicidal effect grade: 5 (Herbicidal ratio of 90% or more (almost completely withered))
[5]
  herbicidal effect on H (Echinochloa crus-galli var. crus-galli), grade 0-5: 5 (Herbicidal ratio of 90% or more (almost completely withered))
Avena fatua
  I: Avena fatua, herbicidal effect grade: 0 (Herbicidal ratio of 5% or lower (almost no effect))
Monochoria vaginalis
  Herbicidal effect grade, C: Monochoria vaginalis: 2 (Herbicidal ratio of 20% or higher and lower than 40%)
Amaranthus retroflexus [6]
  N: Amaranthus retroflexus, herbicidal effect grade: 0 (Herbicidal ratio of 5% or lower (almost no effect))
Soybean [7]
  d: soybean, effect on crop grade: 0 (Herbicidal ratio of 5% or lower (almost no effect))
Setaria viridis [8]
  G: Setaria viridis, herbicidal effect grade: 5 (Herbicidal ratio of 90% or more (almost completely withered))
Setaria viridis [9]
  G: Setaria viridis, herbicidal effect grade: 5 (Herbicidal ratio of 90% or more (almost completely withered))
Chenopodium album [10]
  O: Chenopodium album, herbicidal effect grade: 0 (Herbicidal ratio of 5% or lower (almost no effect))
Galium spurium
  Q: Galium spurium, herbicidal effect grade: 0 (Herbicidal ratio of 5% or lower (almost no effect))
